In ChEMBL document CHEMBL5150060 (J Med Chem, 2022):
Activity calls are given as the source filed them. No cut-off for these calls is given here.

Columns and labels:
[1] = molecular target: T1, Histone deacetylase 8 (Homo sapiens) (UniProt Q9BY41); assay: Inhibition of HDAC8 in human Jurkat T cells assessed as upregulation of IL5 expression at 10 uM after 6 to 12 hrs by RT-qPCR analysis; assay type: cell-based; details: time 6-12 hrs
T1 sequence (whole entry): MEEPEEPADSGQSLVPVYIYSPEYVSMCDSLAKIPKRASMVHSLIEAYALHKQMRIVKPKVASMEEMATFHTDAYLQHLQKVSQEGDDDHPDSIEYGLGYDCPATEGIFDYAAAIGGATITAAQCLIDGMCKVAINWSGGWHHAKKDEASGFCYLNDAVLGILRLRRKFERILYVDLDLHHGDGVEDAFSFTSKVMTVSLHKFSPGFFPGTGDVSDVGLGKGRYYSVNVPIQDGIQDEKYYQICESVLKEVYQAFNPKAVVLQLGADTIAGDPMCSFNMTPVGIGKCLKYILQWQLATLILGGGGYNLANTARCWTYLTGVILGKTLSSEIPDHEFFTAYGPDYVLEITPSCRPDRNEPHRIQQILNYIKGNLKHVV

[2] = molecular target: T1, Histone deacetylase 8 (Homo sapiens); assay: Inhibition of HDAC8 in human Jurkat T cells assessed as increase in H3K27 acetylation at 10 uM after 6 hrs by Western blot analysis; assay type: cell-based
[3] = molecular target: T1, Histone deacetylase 8 (Homo sapiens); assay: Inhibition of HDAC8 in human Jurkat T cells assessed as upregulation of TBX21 expression after 6 hrs by RT-qPCR analysis; assay type: cell-based; details: dose 0.1-10 µM, DDE = dose-dependent effect
[4] = molecular target: T1, Histone deacetylase 8 (Homo sapiens); assay: Inhibition of HDAC8 in human Jurkat T cells assessed as upregulation of GATA3 expression after 6 hrs by RT-qPCR analysis; assay type: cell-based; details: dose 0.1-10 µM, DDE = dose-dependent effect
[5] = Toxicity in C57BL/6 mouse assessed as change in heart weight at 5 to 10 mg/kg, ip administered 5 days per week for 2 weeks by H and E staining based assay; assay type: organism-based; details: in vivo, 336 h, dose 5-10 mg/kg
[6] = molecular target: T1, Histone deacetylase 8 (Homo sapiens); assay: Inhibition of HDAC8 in human Jurkat T cells assessed as upregulation of EOMES expression after 6 hrs by RT-qPCR analysis; assay type: cell-based; details: dose 0.1-10 µM, DDE = dose-dependent effect
[7] = Toxicity in C57BL/6 mouse assessed as change in stomach weight at 5 to 10 mg/kg, ip administered 5 days per week for 2 weeks by H and E staining based assay; assay type: organism-based; details: in vivo, 336 h, dose 5-10 mg/kg
[8] = molecular target: T2, Protein deacetylase HDAC6 (Mus musculus) (UniProt Q9Z2V5); assay: Inhibition of HDAC6 in mouse spleen CD4+ T- lymphocytes assessed as increase in H3K27 acetylation level at 5 to 10 uM after 6 hrs by Western blot analysis; assay type: cell-based; details: CD4+ve Th, dose 5-10 µM
T2 sequence (whole entry): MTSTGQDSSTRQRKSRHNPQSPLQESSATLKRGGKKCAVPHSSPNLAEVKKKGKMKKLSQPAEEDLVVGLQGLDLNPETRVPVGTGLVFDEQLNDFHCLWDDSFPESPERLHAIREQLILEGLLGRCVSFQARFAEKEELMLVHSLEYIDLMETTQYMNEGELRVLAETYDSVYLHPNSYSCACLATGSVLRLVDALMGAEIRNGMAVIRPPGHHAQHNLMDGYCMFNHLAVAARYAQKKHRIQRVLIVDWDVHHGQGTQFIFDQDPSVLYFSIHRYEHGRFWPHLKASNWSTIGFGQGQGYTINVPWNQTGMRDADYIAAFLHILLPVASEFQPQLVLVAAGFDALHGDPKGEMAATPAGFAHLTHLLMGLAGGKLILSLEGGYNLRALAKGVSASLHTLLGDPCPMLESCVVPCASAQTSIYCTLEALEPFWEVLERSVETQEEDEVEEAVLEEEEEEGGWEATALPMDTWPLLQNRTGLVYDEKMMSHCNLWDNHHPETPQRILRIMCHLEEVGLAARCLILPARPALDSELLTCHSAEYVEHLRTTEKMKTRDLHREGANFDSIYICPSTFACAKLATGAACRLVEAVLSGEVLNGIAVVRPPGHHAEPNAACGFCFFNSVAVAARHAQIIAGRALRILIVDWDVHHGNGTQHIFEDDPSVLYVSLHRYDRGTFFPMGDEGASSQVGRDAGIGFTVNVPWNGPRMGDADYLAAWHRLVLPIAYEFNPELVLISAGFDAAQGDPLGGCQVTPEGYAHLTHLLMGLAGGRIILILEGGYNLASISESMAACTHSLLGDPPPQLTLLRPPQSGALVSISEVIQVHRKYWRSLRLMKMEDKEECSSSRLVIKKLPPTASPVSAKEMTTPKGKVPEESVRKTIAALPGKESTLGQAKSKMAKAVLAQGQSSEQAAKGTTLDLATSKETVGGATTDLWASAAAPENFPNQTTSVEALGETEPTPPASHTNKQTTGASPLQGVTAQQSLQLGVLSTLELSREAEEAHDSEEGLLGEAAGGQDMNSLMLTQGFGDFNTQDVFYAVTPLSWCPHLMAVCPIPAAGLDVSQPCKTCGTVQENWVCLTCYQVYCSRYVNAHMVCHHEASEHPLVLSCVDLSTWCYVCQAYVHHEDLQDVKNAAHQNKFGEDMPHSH

[9] = molecular target: T1, Histone deacetylase 8 (Homo sapiens); assay: Inhibition of HDAC8 in human Jurkat T cells assessed as upregulation of BCL6 expression at 10 uM after 6 to 12 hrs by RT-qPCR analysis; assay type: cell-based; details: time 6-12 hrs
[10] = molecular target: T2, Protein deacetylase HDAC6 (Mus musculus); assay: Inhibition of HDAC6 in mouse spleen CD4+ T- lymphocytes assessed as increase in SMC3 acetylation level at 5 to 10 uM after 6 hrs by Western blot analysis; assay type: cell-based; details: CD4+ve Th, dose 5-10 µM
[11] = test system: Mus musculus; assay: Immuno-modulatory activity in C57BL/6 mouse assessed as increase in IL2 expression in CD4+ cells at 10 mg/kg, ip administered 5 days per week for 2 weeks by RT-qPCR analysis; assay type: functional, organism-based
[12] = molecular target: Histone deacetylase 3 (Homo sapiens, UniProt O15379); assay: Inhibition of recombinant human HDAC3 using p53 (Ac-RHKK(Acetyl)-AMC) as substrate preincubated for 5 mins followed by substrate addition and measured after 30 mins by fluorescence based analysis
Chain of Histone deacetylase 3 (O15379 whole entry): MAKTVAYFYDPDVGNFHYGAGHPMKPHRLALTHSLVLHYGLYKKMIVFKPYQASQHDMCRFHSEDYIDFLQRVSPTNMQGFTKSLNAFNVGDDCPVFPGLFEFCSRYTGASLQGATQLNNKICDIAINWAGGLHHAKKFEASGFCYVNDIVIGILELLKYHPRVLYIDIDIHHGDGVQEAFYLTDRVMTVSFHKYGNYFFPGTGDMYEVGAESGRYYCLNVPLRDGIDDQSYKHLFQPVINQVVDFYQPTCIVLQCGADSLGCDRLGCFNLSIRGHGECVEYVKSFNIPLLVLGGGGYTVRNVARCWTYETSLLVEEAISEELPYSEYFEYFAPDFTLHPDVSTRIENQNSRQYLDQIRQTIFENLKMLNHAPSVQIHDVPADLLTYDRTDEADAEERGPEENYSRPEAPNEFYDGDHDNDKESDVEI

[13] = molecular target: T1, Histone deacetylase 8 (Homo sapiens); assay: Inhibition of HDAC8 in human Jurkat T cells assessed as upregulation of IL23 expression at 10 uM after 6 to 12 hrs by RT-qPCR analysis; assay type: cell-based; details: time 6-12 hrs
[14] = Stability of compound in DMEM/DMSO/acetonitrile at pH 7.4 measured after 24 hrs by HPLC analysis; assay type: physicochemical; details: read-out: Stability
[15] = molecular target: T1, Histone deacetylase 8 (Homo sapiens); assay: Reversible binding affinity to recombinant human HDAC8 incubated for 30 mins by jump dilution method
[16] = Stability of compound in DMEM/DMSO/acetonitrile at pH 7.4 measured after 48 hrs by HPLC analysis; assay type: physicochemical; details: read-out: Stability
[17] = molecular target: T1, Histone deacetylase 8 (Homo sapiens); assay: Inhibition of HDAC8 in human Jurkat T cells assessed as upregulation of IL15 expression after 6 hrs by RT-qPCR analysis; assay type: cell-based; details: dose 0.1-10 µM, DDE = dose-dependent effect
[18] = molecular target: T1, Histone deacetylase 8 (Homo sapiens); assay: Inhibition of HDAC8 in human Jurkat T cells assessed as upregulation of IL10 expression at 10 uM after 6 to 12 hrs by RT-qPCR analysis; assay type: cell-based; details: time 6-12 hrs

inhibition [1]: Active | inhibition [2]: Active | inhibition [3]: Dde | inhibition [4]: Dde | inhibition [6]: Dde | inhibition [8]: Active | inhibition [9]: Active | inhibition [10]: Active | IC50 [12]: > 20 µM | inhibition [13]: Active | remaining at 24 h [14]: 105% | Activity [15]: Active | remaining at 48 h [16]: 104% | inhibition [17]: Dde | inhibition [18]: Active
SMILES: CCCCCCNNC(=O)c1ccc(-c2ccc(CNC(C)=O)cc2)cc1
Activity [5]: Non-Toxic | Activity [7]: Non-Toxic | Activity [11]: Active
